Measured values as given in PMC12136037, “Type II kinase inhibitors that target Parkinson’s disease–associated LRRK2” (Science Advances, 2025).
Values joined by “and” are separate entries in the source; they are usually repeats but may differ in a detail not shown here. Identical values can stand only once. Like-named read-outs stand apart in the source and are kept apart here.

What was measured:
Experiment in all cases: nanoBRET off-target validation
Type in all cases: cell-based
[1] = target: T1, CDKL1 (Homo sapiens, UniProt Q00532); conditions: CDKL1, two replicates
T1 construct: host or cells: HEK293T (ATCC CRL-3216)
T1 sequence (Q00532 whole entry): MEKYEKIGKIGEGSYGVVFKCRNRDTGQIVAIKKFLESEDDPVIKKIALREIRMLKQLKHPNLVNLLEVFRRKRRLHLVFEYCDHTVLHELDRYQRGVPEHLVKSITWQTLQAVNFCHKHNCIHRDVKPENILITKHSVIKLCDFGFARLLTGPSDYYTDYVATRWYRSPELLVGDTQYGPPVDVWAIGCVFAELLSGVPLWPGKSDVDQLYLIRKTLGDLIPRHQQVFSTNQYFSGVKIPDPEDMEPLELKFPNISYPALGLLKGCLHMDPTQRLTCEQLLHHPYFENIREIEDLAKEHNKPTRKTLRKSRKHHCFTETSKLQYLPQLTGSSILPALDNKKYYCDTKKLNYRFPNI
Description: (§1) The assay was performed as described previously ([61]). In brief, full-length kinases as listed in table S6 were obtained as plasmids cloned in frame with terminal NanoLuc-fusion (gift from Promega; table S6). […] Serially diluted inhibitor and corresponding tracer as listed in table S6 at the Tracer KD concentration taken from TracerDB (tracerdb.org) ([62]) were pipetted into white 384-well plates (Greiner, 781207) using an ECHO acoustic dispenser (Labcyte). The corresponding protein-transfected cells were added and reseeded at a density of 2 × 10^5 cells/ml after trypsinization and resuspending in Opti-MEM without phenol red (Life Technologies). The system was allowed to equilibrate for 3 hours at 37°C/5% CO2 before bioluminescence resonance energy transfer (BRET) measurements. To measure BRET, NanoBRET NanoGlo Substrate + extracellular NanoLuc Inhibitor (Promega, N2540) was added as per the manufacturer’s protocol, and filtered luminescence was measured on a PHERAstar plate reader (BMG Labtech) equipped with a luminescence filter pair [450-nm BP filter (donor) and 610-nm LP filter (acceptor)]. […] (For step-by-step protocol, see www.eubopen.org/sites/www.eubopen.org/files/attachments/2021/NanoBRET-IC50_v1_0.pdf.)

[2] = target: T2, SLK (Homo sapiens, UniProt Q9H2G2)
T2 construct: host or cells: HEK293T (ATCC CRL-3216)
T2 sequence (Q9H2G2 whole entry): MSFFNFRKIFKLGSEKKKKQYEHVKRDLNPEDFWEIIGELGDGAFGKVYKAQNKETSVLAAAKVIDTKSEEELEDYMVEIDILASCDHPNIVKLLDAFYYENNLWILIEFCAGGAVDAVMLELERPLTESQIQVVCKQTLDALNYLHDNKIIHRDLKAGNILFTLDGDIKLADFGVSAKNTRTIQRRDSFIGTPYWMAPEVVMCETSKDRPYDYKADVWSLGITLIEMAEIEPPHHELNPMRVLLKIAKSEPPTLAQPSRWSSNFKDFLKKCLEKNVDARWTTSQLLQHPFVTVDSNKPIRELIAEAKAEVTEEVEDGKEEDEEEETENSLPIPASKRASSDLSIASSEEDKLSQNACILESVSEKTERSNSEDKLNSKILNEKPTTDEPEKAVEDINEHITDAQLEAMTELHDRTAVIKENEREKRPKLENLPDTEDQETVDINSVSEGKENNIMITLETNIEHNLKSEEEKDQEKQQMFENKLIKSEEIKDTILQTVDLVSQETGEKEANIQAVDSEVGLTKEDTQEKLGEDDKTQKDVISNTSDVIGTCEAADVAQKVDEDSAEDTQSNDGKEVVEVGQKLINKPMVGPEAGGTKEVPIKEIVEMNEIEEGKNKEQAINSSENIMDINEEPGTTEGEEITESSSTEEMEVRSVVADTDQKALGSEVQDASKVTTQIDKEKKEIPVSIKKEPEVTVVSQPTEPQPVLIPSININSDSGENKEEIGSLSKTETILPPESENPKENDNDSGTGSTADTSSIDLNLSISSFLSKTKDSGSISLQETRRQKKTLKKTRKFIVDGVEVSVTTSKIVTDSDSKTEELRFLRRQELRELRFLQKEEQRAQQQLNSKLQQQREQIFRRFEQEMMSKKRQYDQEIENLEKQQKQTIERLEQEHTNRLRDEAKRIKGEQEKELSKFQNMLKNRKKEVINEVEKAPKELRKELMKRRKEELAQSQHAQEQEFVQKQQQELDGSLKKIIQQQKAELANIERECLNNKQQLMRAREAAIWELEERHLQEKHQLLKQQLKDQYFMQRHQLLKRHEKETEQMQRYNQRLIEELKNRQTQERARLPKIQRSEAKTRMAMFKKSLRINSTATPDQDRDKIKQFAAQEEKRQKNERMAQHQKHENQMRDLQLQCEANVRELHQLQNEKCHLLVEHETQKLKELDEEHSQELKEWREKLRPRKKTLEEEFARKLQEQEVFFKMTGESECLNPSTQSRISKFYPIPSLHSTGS
Description: as §1

[3] = target: T3, DYRK2 (Homo sapiens, UniProt Q92630)
T3 construct: host or cells: HEK293T (ATCC CRL-3216)
T3 sequence (Q92630 1-601): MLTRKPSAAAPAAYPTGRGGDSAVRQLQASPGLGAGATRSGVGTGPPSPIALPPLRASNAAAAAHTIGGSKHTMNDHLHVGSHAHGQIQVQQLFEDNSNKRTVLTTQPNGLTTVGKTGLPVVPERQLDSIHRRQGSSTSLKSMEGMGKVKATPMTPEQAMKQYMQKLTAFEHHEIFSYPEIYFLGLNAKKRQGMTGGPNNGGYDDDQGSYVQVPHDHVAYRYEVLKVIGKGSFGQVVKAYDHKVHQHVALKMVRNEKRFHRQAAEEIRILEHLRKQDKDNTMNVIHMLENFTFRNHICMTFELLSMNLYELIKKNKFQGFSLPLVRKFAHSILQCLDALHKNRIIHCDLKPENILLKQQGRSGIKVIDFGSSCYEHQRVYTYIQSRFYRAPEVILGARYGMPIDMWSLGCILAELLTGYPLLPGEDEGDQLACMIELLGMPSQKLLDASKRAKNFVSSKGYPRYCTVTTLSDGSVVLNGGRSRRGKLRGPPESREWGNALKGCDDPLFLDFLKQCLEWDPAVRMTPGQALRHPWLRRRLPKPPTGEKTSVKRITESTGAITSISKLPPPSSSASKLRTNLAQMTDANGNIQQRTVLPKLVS
Description: as §1

For `CCSc1nc(NC)c2c(-c3cccc(NC(=O)Nc4cc(C(C)(C)C)nn4-c4ccc(C)cc4)c3)c[nH]c2n1` [Compound 32], the remaining activity at 0.5 µM ([1]; inhibitor 500 nM, read-out: nanoBRET response normalized to 0% (no tracer) and 100% (no inhibitor) control) was 106%, the “nanoBRET response normalized to 0% (no tracer) and 100% (no inhibitor) control” value ([1]; inhibitor 2500 nM, listed as RN341, […]) was 88.1398% and the remaining activity at […] ([1]; inhibitor 2500 nM, read-out: nanoBRET response normalized to 0% (no tracer) and 100% (no inhibitor) control) was 91%. For the same molecule, the “nanoBRET response normalized to 0% (no tracer) and 100% (no inhibitor) control” value ([1]; inhibitor 5000 nM, listed as RN341, 5 µM) was 77.8643%, the remaining activity at 5 µM ([1]; inhibitor 5000 nM, read-out: nanoBRET response normalized to 0% (no tracer) and 100% (no inhibitor) control) was 74.8% and the “nanoBRET response normalized to 0% (no tracer) and 100% (no inhibitor) control” value ([1]; inhibitor 25000 nM, listed as RN341, 25 µM) was 39.2489%. For the same molecule, the remaining activity at 25 µM ([1]; inhibitor 25000 nM, read-out: nanoBRET response normalized to 0% (no tracer) and 100% (no inhibitor) control) was 46.9%, the EC50 [2] was over 20 µM and the “nanoBRET response normalized to 0% (no tracer) and 100% (no inhibitor) control” value ([2]; SLK, inhibitor 8 nM, two replicates, listed as RN341, 0.008 µM) was 107.417%. The NanoBRET tracer signal (% of no-inhibitor control) at 0.008 µM ([2]; SLK, inhibitor 8 nM, two replicates, read-out: nanoBRET response normalized to 0% (no tracer) and 100% (no inhibitor) control) was 106%, the “nanoBRET response normalized to 0% (no tracer) and 100% (no inhibitor) control” value ([2]; SLK, inhibitor 16 nM, two replicates, listed as RN341, 0.016 µM) was 115.381% and the NanoBRET tracer signal (% of no-inhibitor control) at 0.016 µM ([2]; SLK, inhibitor 16 nM, two replicates, read-out: nanoBRET response normalized to 0% (no tracer) and 100% (no inhibitor) control) was 113%. For the same molecule, the NanoBRET tracer signal (% of no-inhibitor control) at 0.05 µM ([2]; SLK, inhibitor 50 nM, two replicates, read-out: nanoBRET response normalized to 0% (no tracer) and 100% (no inhibitor) control) was 102% and 106%, the “nanoBRET response normalized to 0% (no tracer) and 100% (no inhibitor) control” value ([2]; SLK, inhibitor 250 nM, two replicates, listed as RN341, […]) was 119.576% and the NanoBRET tracer signal (% of no-inhibitor control) at […] ([2]; SLK, inhibitor 250 nM, two replicates, read-out: nanoBRET response normalized to 0% (no tracer) and 100% (no inhibitor) control) was 107%. The “nanoBRET response normalized to 0% (no tracer) and 100% (no inhibitor) control” value ([2]; SLK, inhibitor 500 nM, two replicates, listed as RN341, 0.5 µM) was 122.526%, the NanoBRET tracer signal (% of no-inhibitor control) at 0.5 µM ([2]; SLK, inhibitor 500 nM, two replicates, read-out: nanoBRET response normalized to 0% (no tracer) and 100% (no inhibitor) control) was 118% and the “nanoBRET response normalized to 0% (no tracer) and 100% (no inhibitor) control” value ([2]; SLK, inhibitor 2500 nM, two replicates, listed as RN341, […]) was 114.832%. For the same molecule, the NanoBRET tracer signal (% of no-inhibitor control) at […] ([2]; SLK, inhibitor 2500 nM, two replicates, read-out: nanoBRET response normalized to 0% (no tracer) and 100% (no inhibitor) control) was 117%, the “nanoBRET response normalized to 0% (no tracer) and 100% (no inhibitor) control” value ([2]; SLK, inhibitor 5000 nM, two replicates, listed as RN341, 5 µM) was 116.499% and the NanoBRET tracer signal (% of no-inhibitor control) at 5 µM ([2]; SLK, inhibitor 5000 nM, two replicates, read-out: nanoBRET response normalized to 0% (no tracer) and 100% (no inhibitor) control) was 105%. For the same molecule, the “nanoBRET response normalized to 0% (no tracer) and 100% (no inhibitor) control” value ([2]; SLK, inhibitor 25000 nM, two replicates, listed as RN341, 25 µM) was 86.6362%, the NanoBRET tracer signal (% of no-inhibitor control) at 25 µM ([2]; SLK, inhibitor 25000 nM, two replicates, read-out: nanoBRET response normalized to 0% (no tracer) and 100% (no inhibitor) control) was 83.9% and the EC50 [3] was at least 20 µM. For the same molecule, the “nanoBRET response normalized to 0% (no tracer) and 100% (no inhibitor) control” value ([3]; DYRK2, inhibitor 8 nM, two replicates, listed as RN341, 0.008 µM) was 91.4839%, the remaining nanoBRET tracer signal (% of no-inhibitor control) at 0.008 µM ([3]; DYRK2, inhibitor 8 nM, two replicates, read-out: nanoBRET response normalized to 0% (no tracer) and 100% (no inhibitor) control) was 100% and the “nanoBRET response normalized to 0% (no tracer) and 100% (no inhibitor) control” value ([3]; DYRK2, inhibitor 16 nM, two replicates, listed as RN341, 0.016 µM) was 93.886%. For the same molecule, the remaining nanoBRET tracer signal (% of no-inhibitor control) at 0.016 µM ([3]; DYRK2, inhibitor 16 nM, two replicates, read-out: nanoBRET response normalized to 0% (no tracer) and 100% (no inhibitor) control) was 98.2%, the “nanoBRET response normalized to 0% (no tracer) and 100% (no inhibitor) control” value ([3]; DYRK2, inhibitor 50 nM, two replicates, listed as RN341, 0.05 µM) was 96.6464% and the remaining nanoBRET tracer signal (% of no-inhibitor control) at 0.05 µM ([3]; DYRK2, inhibitor 50 nM, two replicates, read-out: nanoBRET response normalized to 0% (no tracer) and 100% (no inhibitor) control) was 100%. The remaining nanoBRET tracer signal (% of no-inhibitor control) at […] ([3]; DYRK2, inhibitor 250 nM, two replicates, read-out: nanoBRET response normalized to 0% (no tracer) and 100% (no inhibitor) control) was 102% and 94.4%, the “nanoBRET response normalized to 0% (no tracer) and 100% (no inhibitor) control” value ([3]; DYRK2, inhibitor 500 nM, two replicates, listed as RN341, 0.5 µM) was 90.6654% and the remaining nanoBRET tracer signal (% of no-inhibitor control) at 0.5 µM ([3]; DYRK2, inhibitor 500 nM, two replicates, read-out: nanoBRET response normalized to 0% (no tracer) and 100% (no inhibitor) control) was 98.4%. The “nanoBRET response normalized to 0% (no tracer) and 100% (no inhibitor) control” value ([3]; DYRK2, inhibitor 2500 nM, two replicates, listed as RN341, […]) was 86.4231%, the remaining nanoBRET tracer signal (% of no-inhibitor control) at […] ([3]; DYRK2, inhibitor 2500 nM, two replicates, read-out: nanoBRET response normalized to 0% (no tracer) and 100% (no inhibitor) control) was 88.8% and the “nanoBRET response normalized to 0% (no tracer) and 100% (no inhibitor) control” value ([3]; DYRK2, inhibitor 5000 nM, two replicates, listed as RN341, 5 µM) was 92.7606%. For the same molecule, the remaining nanoBRET tracer signal (% of no-inhibitor control) at 5 µM ([3]; DYRK2, inhibitor 5000 nM, two replicates, read-out: nanoBRET response normalized to 0% (no tracer) and 100% (no inhibitor) control) was 83.2%, the “nanoBRET response normalized to 0% (no tracer) and 100% (no inhibitor) control” value ([3]; DYRK2, inhibitor 25000 nM, two replicates, listed as RN341, 25 µM) was 54.6216% and the remaining nanoBRET tracer signal (% of no-inhibitor control) at 25 µM ([3]; DYRK2, inhibitor 25000 nM, two replicates, read-out: nanoBRET response normalized to 0% (no tracer) and 100% (no inhibitor) control) was 47.6%.
